The source of these data is paper PMC7539012, “Hyperphosphorylated tau aggregation and cytotoxicity modulators screen identified prescription drugs linked to Alzheimer's disease and cognitive functions” (Scientific Reports, 2020).

One series deals with T1, 1N4R p-tau.
T1 construct: made in house; host or cells: E. coli (PIMAX system)
Briefly: p-tau aggregation modulator screen of 1280-compound library (ThS fluorescence net change over 16 h). The class given is biochemical. The arrangement: key to PTAI>3SD: *: PTAI>3SD. Conditions: for PTAI>3SD: flag: p-tau aggregation inhibitor, ThS net change more than 3 SD from mean; for ThS net change: library screen, ThS fluorescence net change over 16 h with p-tau.

The target in another series is T2, p-tau (Homo sapiens, UniProt P10636).
T2 construct: made in house; host or cells: E. coli (PIMAX system)
T2 sequence (P10636 1-412 isoform P10636-7): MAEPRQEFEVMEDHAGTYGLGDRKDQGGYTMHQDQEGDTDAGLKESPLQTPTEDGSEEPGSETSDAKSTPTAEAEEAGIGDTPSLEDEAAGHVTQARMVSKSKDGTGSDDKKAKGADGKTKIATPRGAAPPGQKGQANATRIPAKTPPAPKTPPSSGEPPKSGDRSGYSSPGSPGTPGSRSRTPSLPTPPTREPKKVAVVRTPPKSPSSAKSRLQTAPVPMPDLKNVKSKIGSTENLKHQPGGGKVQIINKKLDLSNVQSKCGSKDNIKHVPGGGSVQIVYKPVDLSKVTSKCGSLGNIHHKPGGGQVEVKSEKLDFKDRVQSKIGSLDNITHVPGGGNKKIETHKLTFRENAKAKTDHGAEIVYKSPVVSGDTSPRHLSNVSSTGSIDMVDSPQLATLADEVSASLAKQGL
Briefly: p-tau aggregation assay, dose response (ThS fluorescence, inducer-free). The series is classed as biochemical. Conditions: for EC50 / effect on p-tau aggregation (16-h net change of ThS fluorescence): 6 µM p-tau; for EC50: ThS fluorescence; for effect on p-tau aggregation (16-h net change of ThS fluorescence): 6.25-150 µM benzodiazepine. Here is the method:
Aggregation of 6-µM p-tau under the influence of 30 µM of each of the library compounds or a DMSO vehicle control was monitored in 384-well plates every 10 min for ThS fluorescence changes over 16 h. To assess the quality of the high-throughput p-tau aggregation reactions, we used the T0 and T16hr ThS fluorescence units of no-compound control reactions to calculate the Z′-factor and coefficient of variation (CV), two commonly used criteria for robustness of high-throughput screens (HTS)[62]. A Z′-factor greater than 0.5 and CV smaller than 10% indicate robustness. […] To identify compounds with significant p-tau aggregation modulation, the net change of ThS fluorescence was calculated from all reactions (see Supplemental Table 1 for complete listing).
Aggregation of 6 µM of p-tau was done in the presence of the indicated concentrations of either compound. […] P-tau aggregation reactions with the C291S C322S (C/S) mutant p-tau were done in the presence of the indicated amounts of either compound. Shown are net changes of ThS over 16 h.
Given the tremendous socioeconomical burdens of AD, measures that prevent or delay the onset of the devastating neurodegeneration of AD will be highly impactful. If hyperphosphorylated tau-inflicted neuronal damages are an underpinning for AD and other tauopathies, enhancers of p-tau aggregation (PTAEs) may be risk factors for neurodegeneration. […] Prednicarbate is a synthetic corticosteroid for dermatological use, and carmofur (1-hexylcarbamoyl-5-fluorouracil) is an anti-neoplastic pyrimidine analogue. […] BZDs are among the most widely prescribed medication, in particular to the elderly, for depression and insomnia[70],[71]. We hypothesized that certain BZDs acted as a PTAE to potentiate p-tau aggregation and cytotoxicity. […] We therefore randomly picked nine prescription BZDs for p-tau aggregation assessment (Fig. 6; see Supplemental Fig. 5 for chemical structures). To 6-µM p-tau aggregation reactions, increasing doses of each of these BZDs were added.
Prednicarbate, a synthetic steroid, served as a PTAE control (yellow bars).
The aggregation assays over the course of this project have been done with multi-plate readers from different sources.
A common mix of 6 µM p-tau, 20 mM Tris pH 7.4, 1 mM DTT, and 20 µM ThS was assembled and dispensed to 384-well low-volume plates (10 µl per well) using BioTek EL406 Washer, followed by the addition of 150 nl of the Prestwick Library compounds (final concentration of 30 µM per well) or DMSO in a Beckman Coulter Biomek FX^P workstation. Each plate was covered with an Optical Adhesive Film and incubated at 37 °C for about 10 min. ThS fluorescence was measured every 10 min at 440/490 nm for 16 h by Biotek Synergy Neo Plate Reader. […] The real-time kinetics of ThS signals were collected using Gen5 software.

Another series relates to SH-SY5Y cells. Briefly: cells. Here is the method:
(see below). […] PI is excluded by living cells, but diffuses into dead cells where it binds nucleic acid and emits fluorescence. FDA/PI differential staining thus provides a quantitative assessment of cellular viability. The blue curves in Fig. 4a,b depict the cellular viability after treatment with 0–0.8 µM of p-tau.
P-tau (without pre-aggregation) and compounds were added together to cells. Cell viability was quantified by FDA and PI differential staining 24 h later. […] Cellular viability was characterized as above and plotted against the compound concentration. Trend lines in panels (a)–(c) were obtained with the dose response curve fitting function of the software Origin (Origin Pro 8, OriginLab Corporation, Northampton, MA, USA). (d) Representative images of apoptotic cells after treatment of p-tau. SH-SY5Y cells were treated with 0.6 µM of p-tau for 12 h before harvesting for annexin V and PI staining. […] The percentage of apoptotic SH-SY5Y cells was quantified by annexin V and PI double staining of cells receiving 12 h of the indicated treatment under each column in the graph. Error bars are standard deviations; n = 3.
SH-SY5Y cells were treated with 0–0.6 µM of p-tau in conjunction with varying doses of nitrazepam, prazepam or devazepide. […] The red dotted lines indicate 50% viability. Curve fitting was done with the dose–response fitting function of the software Origin (version 8, OriginLab Inc.). The number in parentheses represents the concentration (in µM) of the indicated compound.
Cell viability assays were tested according to reference[60] with modifications. PTAIs were typically added to cells along with (Fig. 4) or after p-tau was added to cells (Fig. 5). For PTAEs, 10 × concentration of p-tau and the test compounds were assembled for pre-aggregation (without heparin or ThS) for 48 h before adding 10 µl to 100 µl of cells in 96-well plates. Twenty-four or 48 h after the addition of protein/compound, cells were trypsinized and transferred to microcentrifuge tubes, and pelleted at 1000 × g for 5 min at room temperature for FDA, PI, annexin V, and ThS staining. For PI/ThS double staining, cell pellets were resuspended in 20 mM Tris, pH7.4 buffer and incubated with 100 µM ThS for 5 min at room temperature. 5-µg/ml propidium iodide was then added to cell suspension for observation under a microscope.
Supplemental Figure 2. […] SH-SY5Y cells were treated with the indicated concentrations p-tau and compounds (in µM) for 20 hours before FDA/PI differential staining and microscopic quantification. […] 0.2 or 0.4 µM of p-tau and 30 µM of each compound were pre-incubated in aggregation reactions for 24 hours before the 20-hr cell treatment and cytotoxicity quantification. FDA and PI dual staining was performed to measure cellular viability. SH-SY5Y cells Compounds in panel (a) were added to cells along with p-tau without pre-incubation.

On the set-up of series [1]: method as in PMID 29401722. Conditions: cited from earlier work.
The test system of series [2] is C291S C322S (C/S) and C291A C322A (C/A) mutant p-tau. Briefly: aggregation of C/S or C/A mutant p-tau (ThS net change). Conditions: increasing doses of compound. The class given is biochemical. As for the experimental part:
Figure 3 R-(−)-apomorphine and raloxifene are p-tau aggregation inhibitors (PTAIs) that act independently of the redox state of p-tau. (a) and (b) P-tau aggregation inhibition dose response curves of R-(−)-apomorphine and raloxifene. Aggregation of 6 µM of p-tau was done in the presence of the indicated concentrations of either compound. (c) Both R-(−)-apomorphine and raloxifene act independently of the two cysteine residues of p-tau. P-tau aggregation reactions with the C291S C322S (C/S) mutant p-tau were done in the presence of the indicated amounts of either compound. Shown are net changes of ThS over 16 h.
Many “hits” from prior tau-based HTS were non-selective redox modulators, due most likely to the susceptibility of unmodified tau fibrils to the oxidation of two cysteine residues of tau, C291 and C322. Because p-tau aggregation was not affected by changing the two cysteine residues to alanine or serine, we suspected that R-(−)-apomorphine and raloxifene would act independently of these two cysteine. […] By itself, the C/S p-tau gained 130 units of ThS fluorescence over the course of the aggregation reaction (blue column). With increasing doses of either compound, the net gain of ThS fluorescence decreased progressively. […]

In a further series the test system is women. Conditions: cited from earlier work.
Another series has as its system K18 P301L. The arrangement: method as in earlier work. Conditions: 15 µM K18 P301L, 40 µM heparin; ref Probe Report ML103, National Center for Biotechnology Information, 2010; read-out: AC50 for tau aggregation inhibition; cited from earlier work.
Where [3] appears, read: 50 or 200 µM compound, heparin-free.
Where [4] appears, read: SH-SY5Y, p-tau pre-incubated with compound.

The structures appear in SMILES notation. Structures can show the parent of a compound that is named as a salt. Where two headings read alike, the source gives them in different places.

Consider `CC(C)/N=c1\cc2n(-c3ccc(Cl)cc3)c3ccccc3nc-2cc1Nc1ccc(Cl)cc1` [Clofazimine, clofazimine, reference compound], for which, in the series on 1N4R p-tau, the “PTAI>3SD” value is listed as “*” and the ThS net change was -196. Further, at p-tau, the EC50 was 68 µM. Also, the p-tau cytotox result with SH-SY5Y cells is given as “No change”.
For `NNc1nncc2ccccc12` [Hydralazine, hydralazine hydrochloride], the EC50 at p-tau came out at 21.8 µM. In addition, the p-tau cytotox entry in the series on SH-SY5Y cells was “No change”.
On to `COC1=C(OC)C(=O)C(CCCCCCCCCCO)=C(C)C1=O` [Idebenone, idebenone], for which, in the series with 1N4R p-tau, the “PTAI>3SD” value was “*” and the ThS net change is on record as -1. For the same compound, the EC50 at p-tau stood at 10.5 µM. In addition, the bioavailability entry in series [1] is reported as “very low bioavailability”.
Consider `CCC(C)n1ncn(-c2ccc(N3CCN(c4ccc(OCC5COC(Cn6cncn6)(c6ccc(Cl)cc6Cl)O5)cc4)CC3)cc2)c1=O` (centres unmarked) [Itraconazole, itraconazole, reference compound], for which, in the series on 1N4R p-tau, the “PTAI>3SD” value is given as “*” and the ThS net change is on record as -31. Further, at p-tau, the EC50 turned out to be 10.6 µM. In addition, the p-tau cytotox result in the series with SH-SY5Y cells is on record as “No change”.
Turning to `COC(=O)C1=C(C)NC(C)=C(C(=O)OCC(C)C)C1c1ccccc1[N+](=O)[O-]` (centres unmarked) [Nisoldipine, nisoldipine, reference compound], in the series with 1N4R p-tau, the “PTAI>3SD” value was “*” and the ThS net change was -29. Also, the p-tau cytotox entry with SH-SY5Y cells was “No change”.
Consider `O=C(c1ccc(OCCN2CCCCC2)cc1)c1c(-c2ccc(O)cc2)sc2cc(O)ccc12` [Raloxifene, raloxifene hydrochloride], for which the EC50 worked out at 31.2 µM on p-tau and 4.8 µM in the series on SH-SY5Y cells (Homo sapiens, SH-SY5Y, read-out: EC50, concentration of compound to reduce p-tau cytotoxicity by 50%, SH-SY5Y, 0.8 µM p-tau). For the same compound, at p-tau (50 µM compound), the “effect on p-tau aggregation” value is “completely blocked p-tau aggregation”. For the same compound, the “aggregation of C/A or C/S mutant p-tau” value in series [2] is reported as “effectively inhibited”. In the series with women (3-year trial, 5386 participants, 120 mg daily), the “risk of mild cognitive impairment (MCI)” value is reported as “reduced risks of mild cognitive impairment (MCI)”. For the same compound, the “benefit for AD treatment” value in the series on women (12-month trial, 42 women with late-onset AD of mild to moderate severity) is recorded as “no significant benefits”.
Take `CCOC(=O)c1nn(-c2ccccc2)c(=O)c2c(N)scc12` [compound 1]: at p-tau (setting [3]), the “effect on p-tau aggregation” value is on record as “no effect on p-tau aggregation”. Besides, the concentration at half-maximal activity (AC50) in the series with K18 P301L is 3.3 ± 0.2 µM.
Take `Nc1scc2c(C(=O)O)nn(-c3ccccc3)c(=O)c12` [compound 2]: the figures for the “p-tau aggregation reduced to” value at p-tau (400 µM compound) and on p-tau (1 mM compound) were 57% and 46%, respectively. For the same compound, the “effect on p-tau aggregation” value on p-tau (setting [3]) is recorded as “moderate inhibition”. Also, the AC50 in the series with K18 P301L was 6.8 ± 0.4 µM.
With `CN1C(=O)[C@@H](NC(=O)c2cc3ccccc3[nH]2)N=C(c2ccccc2)c2ccccc21` [devazepide], on p-tau, the “effect on p-tau aggregation (16-h net change of ThS fluorescence)” value is listed as “enhanced p-tau aggregation in a dose-dependent manner”. Moreover, the “effect on p-tau cytotoxicity (cell death curve, LD50)” value (“effect on p-tau cytotoxicity” below) with SH-SY5Y cells is “decreasing LD50”.
With `O=C1CN=C(c2ccccc2)c2cc([N+](=O)[O-])ccc2N1` [nitrazepam], on p-tau, the “effect on p-tau aggregation (16-h net change of ThS fluorescence)” value is on record as “did not”. Further, the “effect on p-tau cytotoxicity” value in the series with SH-SY5Y cells (setting [4]) is on record as “did not alter the cytotoxicity of p-tau at all”.
As for `O=C1CN=C(c2ccccc2)c2cc(Cl)ccc2N1CC1CC1` [prazepam], the “effect on p-tau aggregation (16-h net change of ThS fluorescence)” value on p-tau is “enhanced p-tau aggregation in a dose-dependent manner”. Further, in the series with SH-SY5Y cells (setting [4]), the “effect on p-tau cytotoxicity” value is given as “decreasing LD50”.

Usually AC50 stands for the concentration at which the activity in the assay is half-maximal.
